“Also recorded” adds a separate entry of the source.
Columns and labels:
[1] = test system: phosphorylated ERK; assay: pERK activation in human colonic mucosa / proximal colon; assay type: cell-based
[2] = test system: phosphorylated CaMKII; conditions: via GPR120, not via pERK; background; cited from earlier work
[3] = test system: phosphorylated CaMKII; assay: pCaMKII activation in human colonic mucosa / proximal colon; assay type: cell-based; conditions: 100 MM (heading of Example 6), FIG. 9
[4] = in vivo; cited from earlier work
[5] = infused into the small intestine through a nasogastric tube; cited from earlier work
[6] = test system: phosphorylated ERK; conditions: human colonic mucosa / enteroendocrine cells, previously shown; cited from earlier work

SMILES: CC/C=C\C/C=C\C/C=C\CCCCCCCC(=O)O [ALA, (9Z,12Z,15Z)-9,12,15-Octadecatrienoic acid]
- expression of cell activation marker pERK ([1]; human colonic mucosa, 100 MM (heading of Example 6), FIG. 9): potently induce expression; also recorded: activate
- activation of pCalmodulin kinase II (pCAMKII) [2]: activate
- expression of cell activation marker pCamKii [3]: potently induce expression; also recorded: activate

SMILES: c1ccc2c(Cc3c[nH]c4ccccc34)c[nH]c2c1 [DIM, 3,3′-diindolylmethane]
- activation of pERK in colonocytes ([1]; in combination with GPR120 agonist TUG891 and GPR84 agonist lauric acid (FIG. 8)): potently activates

SMILES: CCCCCCCCCCCC(=O)O [lauric acid]
- plasma levels of glucagon-like peptide-1 (GLP-1) [4]: increasing
- plasma levels of peptide YY (PYY) [4]: increasing
- food intake [5]: reduces food intake more potently than other fatty acids
- activation of intracellular pathway as measured by phosphorylated ERK [6]: activates

From US12533333B2, “Method of treatment of obesity” (Queen Mary University of London, priority 2016, dated 2026)
